Results reported in patent US5460829A, “Pharmaceutical compositions based on ebastine or analogues thereof” (Rhone-Poulenc Rorer S.A., priority 1991, dated 1995).

Tests used:
Water solubility at pH 2 = format: physicochemical
[1] = Bioavailability of solid form; format: in vivo; conditions: formulated in solid form
[2] = Dissolution of the active principle in aqueous/acidic medium; format: physicochemical; conditions: oral administration

Row | Structure (SMILES) | water solubility (Water solubility at pH 2; basic non-salified form, relative to the lactate) | bioavailability [1] | dissolution time in the aqueous medium of the stomach [2] | solubility (Water solubility at pH 2; water, in the form of the lactate, pH 2, read-out: optimum solubility)
1 | CC(C)(C)c1ccc(C(=O)CCCN2CCC(OC(c3ccccc3)c3ccccc3)CC2)cc1 [compound of formula (I), 4-diphenylmethoxy-1-[3-(4-tert-butylbenzoyl)propyl]piperidine] | even lower | very mediocre | very long | –
2 | CC(C)(C)c1ccc(C(=O)CCCN2CCC(OC(c3ccccc3)c3ccccc3)CC2)cc1 [compound of formula (I) lactate] | – | – | – | 800 µg/mL
